Measured values: US20070078174A1 (priority 2005, published 2007)
Structures can show the parent of a compound that is named as a salt.

Assays:
clinical [1] = conditions: male, human, plasma
Protocol: The study was a randomized open label study with a four period comparative crossover study. […] The blood samples were taken at “0” hour (pre-dosing), 10 min, 20 min, 40 min, 1.0.
The study contained twelve (12) male subjects aged 18-55 years. […] However the available pharmacokinetic data from all twelve (12) subjects was included in the statistical analysis, as required by the study protocol.
The study administered the single dosages in four different forms.

[2] = cited from earlier work
clinical [3] = conditions: human, plasma, other: sublingual and oral
Protocol: Two groups were randomized and there was a one week washout period between administrations. The volunteers were in the fasted state when the drugs were administered. […] The oral formulation was administered with a glass of water. […] The samples were blinded from the analysts. […]

half-life (clinical [1]): 1.5 to 1.7 h
half-life (clinical [3]): 1.5 to 1.7 h
Structure (SMILES): Clc1ccc2nsnc2c1NC1=NCCN1 [tizanidine, Tizanidine hydrochloride]
absolute bioavailability ([2]; administered orally, extensive hepatic first pass metabolism): about 40%
bioavailability ([2]; lowered by first-pass hepatic metabolism): 22-40%
terminal half life ([2]; reported): 2.5 h
